Here are results for 2 compounds from patent US11839213B2, “Antimicrobial, disinfecting, and wound healing compositions and methods for producing and using the same” (Armis Biopharma, Inc., priority 2008, dated 2023).

For one assay, the system named is C. difficile. Briefly: ASTM E2197-02 disk carrier test against C. difficile spores. It counts as cell-based. To be noted: C. difficile spores with soil load on stainless steel disks, 10 minutes contact. As to the method: Pyruvic peracid (PPA) and Peroxy α-ketobutyric acid (POKBA) were tested against C. difficile using the ASTM E2197-02 testing method and the results are shown on FIG. 3. […] The method of testing these molecules against C. difficile was designed to evaluate the ability of liquid chemical germicides to inactivate vegetative bacteria, viruses, fungi, mycobacteria and bacterial spores in the presence of a soil load on disk carriers that represent environmental surfaces and medical devices.
This test method is a standard test promulgated by ASTM Committee E35 on Pesticides and Subcommittee E35.15 on Antimicrobial Agents. The stringency in the test is provided by the use of a soil load, the microtopography of the carrier surface and the small ratio of disinfectant to surface area (1:5) typical for many disinfectant applications. Thus the formulation under test is presented with a reasonable challenge while allowing for efficient recovery of the test organisms from the inoculated carriers with or without their exposure to the test formulation.
The metal disks used in the basic test are also compatible with a wide variety of germicidal actives and most surfaces in consumer based product manufacturing and health care facilities. The design of the metal discs makes it possible to place onto each precisely measured volume of the test organism (28 μL) as well as the test formulation (125 μL). […]

The next assay relates to MRSA. Briefly: Spray test, log reduction of MRSA. It counts as cell-based. To be noted: derived from 10% pyruvate and 3% H2O2; no growth in the broth, complete elimination assumed. The source says:
A representative list of the organisms tested include, but are not limited to, Bacillus subtilis, Bacillus atrophaeus, Bacillus thuringiensis, Staphylococcus aureus, Salmonella cholerasuis, Pseudomonas aeruginosa, Aspergillus niger, and Trichophyton mentagrophytes. The following exemplifies one procedure derived from disinfectant test methods found in guidelines of the Association of Official Analytical Chemists (AOAC) to meet “log reduction criteria” established by the U.S. Environmental Protection Agency (EPA) and U.S. FDA for certain applications: (1) A tube of the sample-disinfectant is placed into a waterbath for temperature control and allowed to equilibrate; (2) Once the tube has reached temperature, it is inoculated to achieve a concentration of approximately 10^6 CFU/mL; (3) At selected time points (generally five points are used including zero) aliquots are removed and placed into a neutralizer blank; (4) Dilutions of the neutralizer are made and selected dilutions plated onto agar; (5) Colonies are enumerated and log reductions are calculated.
In order to obtain observable significant reductions (on the order of 106) of surface bacteria, a high number of viable CFU/in^2 must be available for treatment on the surface to be disinfected. […]
The effectiveness of treatments was evaluated by enumeration of the surviving bacteria on the slide. […]

Regarding `CCC(=O)C(=O)OO` [POKBA, Peroxy-alpha-Ketobutyric Acid], the “activity against C. difficile (comparison, FIG. 3)” value in the assay with C. difficile was “significantly more active compared to PPA”.
Regarding `CC(=O)C(=O)OO` [peroxy pyruvic acid], the “log reduction of the MRSA control” value with MRSA is reported as “approximately 6 logs”.
